Data taken from patent US8106048B2, “Heterocyclic NF-κB inhibitors” (4SC AG, priority 2004, dated 2012).

System: A549-NF-κB-SEAP reporter cells
Assay: Inhibition of NF-κB-induced inflammation: […] NINA Instant Assay, TNF-α stimulated SEAP reporter
Type: cell-based
Conditions: % inhibition classes
Excerpt: For the determination of anti-inflammatory activity of the compounds the […]® NINA Instant Assay from Cell Culture Service GmBH was used. This assay is based on […] recombinant A549-NF-κB-SEAP reporter cells preceded in 96-well flat bottom plates. As the transfected reportergen for SEAP (secreted embryonic alkaline phosphatase) is under transcriptional control of a NF-κB-responsive element, the expression of this reporter is activated upon stimulation with TNF-α. SEAP secretion into the culture supernatant can be detected by the chemiluminescent substrate CSPD®. Test compounds that inhibit the NF-κB activation show reduced SEAP activity and reduced luminescent readout.
Following 18 h of reactivation at 37° C., 5% CO2 and 90% relative humidity, the cells were incubated with 0.01 up to 100 μM of test compound for 4.5 h before stimulation with 2 ng/ml TNF-α. After stimulation with TNF-α for 22 h endogenous phosphatases were inactivated and CSPD® substrate was supplied for 40 min. SEAP activity then was quantified by measuring luminescence as relative light units (RLU) using a Tecan Ultra reader. Each data point was recorded in quadruplicates and EC50 values were calculated via fitting function and the Microsoft Excel Solver.

Row | Compound | Biological activity (inhibition in the NF-κB inflammation assay)
1 | N#Cc1ccc(CN2CCN(c3nc(C(=O)N4CCN(c5cccc(C(F)(F)F)c5)CC4)cs3)CC2)cc1 [compound 62] | +++ (“+++” stands for 90-100% inhibition)
2 | O=C(Cc1ccc(F)cc1)N1CCC(c2nc(C(=O)N3CCc4ccccc4C3)cs2)CC1 [compound 163] | + (“+” stands for 50-80% inhibition)
3 | O=C(c1csc(C2CCN(Cc3ccncc3)CC2)n1)N1CCN(c2cccc(C(F)(F)F)c2)CC1 [compound 107] | + (“+” stands for 50-80% inhibition)
4 | N#Cc1ccc(C(=O)N2CCN(c3nc(C(=O)N4CCN(c5cccc(C(F)(F)F)c5)CC4)cs3)CC2)cc1 [compound 61] | +++ (“+++” stands for 90-100% inhibition)
5 | O=C(Nc1cc(F)cc2c1OCCO2)N1CCC(c2nc(C(=O)N3CCN(c4cccc(C(F)(F)F)c4)CC3)cs2)CC1 [compound 74] | ++ (“++” means 80-90%)
6 | O=C(O)N1CCC(c2nc(C(=O)N3CCN(c4cccc(C(F)(F)F)c4)CC3)cs2)CC1 [compound 113] | + (“+” stands for 50-80% inhibition)
7 | COc1cc(N2CCN(C(=O)c3csc(C4CCN(C(=O)c5ccccc5OC(F)(F)F)CC4)n3)CC2)nc(OC)n1 [compound 130] | + (“+” stands for 50-80% inhibition)
8 | O=C(c1csc(C2CCN(c3ccc(C(F)(F)F)cc3)CC2)n1)N1CCN(c2cccc(C(F)(F)F)c2)CC1 [compound 155] | + (“+” stands for 50-80% inhibition)
9 | N#Cc1ccc(N2CCC(c3nc(C(=O)N4CCN(c5cccc(C(F)(F)F)c5)CC4)cs3)CC2)cc1 [compound 112] | + (“+” stands for 50-80% inhibition)
10 | N#Cc1ccc(C(=O)N2CCC(c3nc(C(=O)N4CCN(c5cccc(C(F)(F)F)c5)CC4)cs3)CC2)cc1 [compound 70] | ++ (“++” means 80-90%)
11 | O=C(c1csc(C2CCN(C(=O)c3ccccc3OC(F)(F)F)CC2)n1)N1CCN(c2ncnc3nc[nH]c23)CC1 [compound 129] | + (“+” stands for 50-80% inhibition)
12 | O=C(c1csc(C2CCN(Cc3ccccc3OC(F)(F)F)CC2)n1)N1CCN(c2cccc(C(F)(F)F)c2)CC1 [compound 109] | + (“+” stands for 50-80% inhibition)
13 | O=C(Nc1nc(C(=O)N2CCN(c3cccc(C(F)(F)F)c3)CC2)cs1)c1ccc(C(F)(F)F)c(F)c1 [compound 34] | +++ (“+++” stands for 90-100% inhibition)
14 | COc1cc(C(=O)N2CCC(c3nc(C(=O)N4CCN(c5cccc(C(F)(F)F)c5)CC4)cs3)CC2)cc(OC)c1OC [compound 225] | + (“+” stands for 50-80% inhibition)
15 | O=C(CCC1CCCC1)N1CCC(c2nc(C(=O)N3CCN(c4cccc(C(F)(F)F)c4)CC3)cs2)CC1 [compound 224] | + (“+” stands for 50-80% inhibition)
16 | O=C(c1cccnc1)N1CCC(c2nc(C(=O)N3CCN(c4cccc(C(F)(F)F)c4)CC3)cs2)CC1 [compound 222] | + (“+” stands for 50-80% inhibition)
17 | O=C(Nc1cccc(F)c1)N1CCC(c2nc(C(=O)N3CCN(c4cccc(C(F)(F)F)c4)CC3)cs2)CC1 [compound 142] | ++ (“++” means 80-90%)
18 | CC(=O)c1ccc(N2CCN(c3nc(C(=O)N4CCN(c5cccc(C(F)(F)F)c5)CC4)cs3)CC2)cc1 [compound 66] | ++ (“++” means 80-90%)
19 | CN(C(=O)c1csc(C2CCN(C(=O)c3ccccc3OC(F)(F)F)CC2)n1)C(CN1CCOCC1)c1ccccc1 (centres unmarked) [compound 147] | + (“+” stands for 50-80% inhibition)
20 | O=C(Nc1nnc(Cc2ccccc2)[nH]1)c1csc(C2CCN(C(=O)c3ccccc3OC(F)(F)F)CC2)n1 [compound 84] | + (“+” stands for 50-80% inhibition)
21 | CN(C)c1cccc(C(=O)N2CCC(c3nc(C(=O)N4CCN(c5cccc(C(F)(F)F)c5)CC4)cs3)CC2)c1 [compound 226] | ++ (“++” means 80-90%)
22 | O=C(c1csc(C2CCN(c3ccc4c(c3)OCCO4)CC2)n1)N1CCN(c2cccc(C(F)(F)F)c2)CC1 [compound 157] | + (“+” stands for 50-80% inhibition)
23 | O=C(O)C=CC(=O)N1CCC(c2nc(C(=O)N3CCN(c4cccc(C(F)(F)F)c4)CC3)cs2)CC1 [compound 191] | + (“+” stands for 50-80% inhibition)

Row | Compound | Biological activity (inhibition in the NF-κB inflammation assay)
24 | O=C(c1csc(N2CCN(Cc3ccccc3)CC2)n1)N1CCN(c2cccc(C(F)(F)F)c2)CC1 [compound 72] | +++ (“+++” stands for 90-100% inhibition)
25 | COc1cc2c(cc1OC)CN(C(=O)c1csc(C3CCN(C(=O)Cc4ccc(F)cc4)CC3)n1)CC2 [compound 161] | + (“+” stands for 50-80% inhibition)
26 | Nc1cc(=O)[nH]c(NC(=O)c2csc(C3CCN(C(=O)c4ccccc4OC(F)(F)F)CC3)n2)n1 [compound 83] | + (“+” stands for 50-80% inhibition)
27 | COc1ccccc1N1CCN(C(=O)c2csc(C3CCN(C(=O)Cc4ccc(F)cc4)CC3)n2)CC1 [compound 229] | + (“+” stands for 50-80% inhibition)
28 | CCCCN1CCN(C(=O)c2csc(C3CCN(C(=O)Cc4ccc(F)cc4)CC3)n2)CC1 [compound 231] | + (“+” stands for 50-80% inhibition)
29 | O=C(Cc1ccc(F)cc1)N1CCC(c2nc(C(=O)N3CCc4ccccc43)cs2)CC1 [compound 162] | + (“+” stands for 50-80% inhibition)
30 | COc1ccc(N2CCC(c3nc(C(=O)N4CCN(c5cccc(C(F)(F)F)c5)CC4)cs3)CC2)c(OC)c1 [compound 153] | + (“+” stands for 50-80% inhibition)
31 | O=C(c1csc(C2CCN(Cc3ccc(C(F)(F)F)cc3)CC2)n1)N1CCN(c2cccc(C(F)(F)F)c2)CC1 [compound 169] | + (“+” stands for 50-80% inhibition)
32 | O=C(c1csc(C2CCN(S(=O)(=O)c3cccs3)CC2)n1)N1CCN(c2cccc(C(F)(F)F)c2)CC1 [compound 194] | + (“+” stands for 50-80% inhibition)
33 | O=C(c1csc(C2CCN(S(=O)(=O)c3ccc(Br)cc3)CC2)n1)N1CCN(c2cccc(C(F)(F)F)c2)CC1 [compound 199] | + (“+” stands for 50-80% inhibition)
34 | O=C(CCC1CCCC1)NCC1CCN(c2nc(C(=O)N3CCN(c4cccc(C(F)(F)F)c4)CC3)cs2)CC1 [compound 100] | + (“+” stands for 50-80% inhibition)
35 | O=C(c1csc(C2CCN(S(=O)(=O)c3ccc(F)cc3Cl)CC2)n1)N1CCN(c2cccc(C(F)(F)F)c2)CC1 [compound 195] | + (“+” stands for 50-80% inhibition)
36 | O=C(c1csc(C2CCN(C(=O)c3cc4ccccc4s3)CC2)n1)N1CCN(c2cccc(C(F)(F)F)c2)CC1 [compound 213] | ++ (“++” means 80-90%)
37 | O=C(c1csc(C2CCN(C(=O)c3ccccc3OC(F)(F)F)CC2)n1)N1CCN(c2nc3ccccc3n2Cc2ccc(F)cc2)CC1 [compound 48] | +++ (“+++” stands for 90-100% inhibition)
38 | Cc1cc2nc(NC(=O)c3csc(C4CCN(C(=O)c5cc(-c6ccc(Cl)cc6)oc5C(F)(F)F)CC4)n3)[nH]c2cc1C [compound 132] | + (“+” stands for 50-80% inhibition)
39 | O=C(c1csc(C2CCN(C(=O)c3ccccc3OC(F)(F)F)CC2)n1)N1CCOC(c2ccccc2)C1 (centres unmarked) [compound 146] | + (“+” stands for 50-80% inhibition)
40 | O=C(O)C1=C(C(=O)N2CCC(c3nc(C(=O)N4CCN(c5cccc(C(F)(F)F)c5)CC4)cs3)CC2)CCC1 [compound 188] | + (“+” stands for 50-80% inhibition)
41 | COc1cccc(CN2CCC(c3nc(C(=O)N4CCN(c5cccc(C(F)(F)F)c5)CC4)cs3)CC2)c1 [compound 173] | + (“+” stands for 50-80% inhibition)
42 | N=C(NC(=O)c1coc(NC(=O)c2ccccc2OC(F)(F)F)n1)Nc1nc2ccccc2[nH]1 [compound 28] | +++ (“+++” stands for 90-100% inhibition)
43 | O=C(Nc1ccc(F)cc1)N1CCC(c2nc(C(=O)N3CCN(c4cccc(C(F)(F)F)c4)CC3)cs2)CC1 [compound 143] | + (“+” stands for 50-80% inhibition)
44 | CC(C)NC(=O)N1CCC(c2nc(C(=O)N3CCN(c4cccc(C(F)(F)F)c4)CC3)cs2)CC1 [compound 78] | + (“+” stands for 50-80% inhibition)
45 | O=C(c1csc(C2CCN(Cc3ccc(F)cc3Cl)CC2)n1)N1CCN(c2cccc(C(F)(F)F)c2)CC1 [compound 171] | + (“+” stands for 50-80% inhibition)

Same assay, conditions: inhibition classes

Row | Compound | Biological activity (inhibition in the NF-κB inflammation assay)
46 | O=C(Cc1ccc(F)cc1)N1CCC(c2nc(C(=O)N3CCN(c4cccc(Cl)c4)CC3)cs2)CC1 [compound 238] | + (“+” stands for 50-80% inhibition)
47 | O=C(Cc1ccc(F)cc1)N1CCC(c2nc(C(=O)N3CCN(c4ccccn4)CC3)cs2)CC1 [compound 237] | + (“+” stands for 50-80% inhibition)
